Laboratory results taken from article PMC6222718, “Ethylenediamine Derived Carboxamides of Betulinic and Ursolic Acid as Potential Cytotoxic Agents” (Molecules : A Journal of Synthetic Chemistry and Natural …, 2018).
Structures can show the parent of a compound that is named as a salt.

Experiments:
[1] = test system: non-malignant mouse fibroblasts NIH 3T3; assay: SRB cytotoxicity assay, NIH 3T3; format: cell-based; settings: NIH3T3, 96 h of treatment
Description: (§1) The cytotoxicity of ursolic and betulinic carboxamides 3–30 was determined in sulforhodamine B (SRB) assays.
(§2) The cell lines used were human cancer cell lines: 518A2 (melanoma), A2780 (ovarian carcinoma), HT29 (colon adenocarcinoma), MCF-7 (breast adenocarcinoma), 8505C (thyroid carcinoma) and non-malignant mouse fibroblasts NIH 3T3. Cultures were maintained as monolayers in RPMI 1640 medium with L-glutamine (Capricorn Scientific GmbH, Ebsdorfergrund, Germany) supplemented with 10% heat inactivated fetal bovineserum (Sigma-Aldrich Chemie GmbH, Steinheim, Germany) and penicillin/streptomycin (Capricorn Scientific GmbH, Ebsdorfergrund, Germany) at 37 °C in a humidified atmosphere with 5% CO2.
(§3) The cytotoxicity of the compounds was evaluated using the sulforhodamine-B (Kiton-Red S, ABCR) micro culture colorimetric assay. Cells were seeded into 96-well plates on day 0 at appropriate cell densities to prevent confluence of the cells during the period of experiment. After 24 h, the cells were treated with 6 different concentrations (1, 3, 7, 12, 20 and 30 µM) minimum. The final concentration of DMSO/DMF never exceeded 0.5%, which was non-toxic to the cells. After a 96 h treatment, the supernatant medium from the 96-well plates was discarded, the cells were fixed with 10% trichloroacetic acid (TCA) and allowed to rest at 4 °C. After 24 h fixation, the cells were washed in a strip washer and dyed with SRB solution (100 µL, 0.4% in 1% acetic acid) for about 20 min. After dying, the plates were washed four times with 1% acetic acid to remove the excess of the dye and allowed to air-dry overnight. Tris base solution (200 µL, 10 mM) was added to each well and absorbance was measured at λ = 570 nm using a 96-well plate reader (Tecan Spectra, Crailsheim, Germany). The EC50 values were averaged from three independent experiments performed each in triplicate calculated from semi logarithmic dose response curves applying a non-linear 4P Hills-slope equation (GraphPad Prism5; variables top and bottom were set to 100 and 0, respectively).

[2] = test system: MCF-7 (breast adenocarcinoma); assay: SRB cytotoxicity assay, MCF-7; format: cell-based, human; settings: for EC50: Homo sapiens, MCF7, SRB assay, 96 h of treatment, MCF-7; for Selectivity index (SI) MCF-7: SI = EC50 (NIH 3T3)/EC50 (MCF-7)
Description: as §1, §2, §3

518A2 (melanoma) = assay: SRB cytotoxicity assay, 518A2; format: cell-based, human; settings: for EC50: Homo sapiens, SRB assay, 96 h of treatment, 518A2; for Selectivity index (SI) 518A2: SI = EC50 (NIH 3T3)/EC50 (518A2)
Description: as §1, §2, §3

[3] = test system: HT29 (colon adenocarcinoma); assay: SRB cytotoxicity assay, HT29; format: cell-based, human; settings: for EC50: Homo sapiens, HT-29, SRB assay, 96 h of treatment, HT29; for Selectivity index (SI) HT29: SI = EC50 (NIH 3T3)/EC50 (HT29)
Description: as §1, §2, §3

[4] = test system: A2780 (ovarian carcinoma); assay: SRB cytotoxicity assay, A2780; format: cell-based, human; settings: for EC50: Homo sapiens, SRB assay, 96 h of treatment, A2780; for Selectivity index (SI) A2780: SI = EC50 (NIH 3T3)/EC50 (A2780)
Description: as §1, §2, §3

[5] = test system: 8505C (thyroid carcinoma); assay: SRB cytotoxicity assay, 8505C; format: cell-based, human; settings: for EC50: Homo sapiens, SRB assay, 96 h of treatment, 8505C; for Selectivity index (SI) 8505C: SI = EC50 (NIH 3T3)/EC50 (8505C)
Description: as §1, §2, §3

SMILES	EC50 [1] [nM]	EC50 [2] [nM]	Selectivity index (SI) MCF-7 [2]	melting point [°C]	EC50 (518A2 (melanoma)) [nM]	Selectivity index (SI) 518A2 (518A2 (melanoma))	EC50 [3] [nM]	Selectivity index (SI) HT29 [3]	EC50 [4] [nM]	Selectivity index (SI) A2780 [4]	EC50 [5] [nM]	Selectivity index (SI) 8505C [5]
C[C@@H]1CC[C@]2(C(=O)NCCN3CCCCC3)CC[C@]3(C)C(=CCC4[C@@]5(C)CC[C@H](O)C(C)(C)C5CC[C@]43C)C2[C@H]1C (stereo partly drawn) [Compound 13, (3β)-N-(2-Piperidin-1-ylethyl)-3-hydroxy-urs-12-en-28-amide]	3500 ± 600	11100 ± 1400	0.32	120 to 124	12600 ± 200	0.28	8400 ± 700	0.42	7600 ± 600	0.46	11100 ± 300	0.32
C=C(C)C1CC[C@]2(C(=O)NCCN)CC[C@]3(C)C(CCC4[C@@]5(C)CC[C@H](OC(C)=O)C(C)(C)C5CC[C@]43C)C12 (stereo partly drawn) [Compound 17, (3β)-N-(2-Aminoethyl)-3-acetyloxy-lup-20(29)-en-28-amide]	1400 ± 100	1300 ± 60	1.08	–	1600 ± 100	0.88	1000 ± 300	1.40	1400 ± 200	1.00	2500 ± 30	0.56
COc1cccc2c1C(=O)c1c(O)c3c(c(O)c1C2=O)C[C@@](O)(C(=O)CO)C[C@@H]3O[C@H]1C[C@H](N)[C@H](O)[C@H](C)O1 [DRC, doxorubicin hydrochloride, reference compound]	60 ± 30	1100 ± 300	0.05	–	200 ± 50	0.30	900 ± 200	0.07	10 ± 10	6.00	1100 ± 400	0.05
C=C(C)[C@@H]1CC[C@]2(C(=O)O)CC[C@]3(C)[C@H](CC[C@@H]4[C@@]5(C)CC[C@H](O)C(C)(C)[C@@H]5CC[C@]43C)[C@@H]12 [BA, betulinic acid, reference compound]	13100 ± 1100	10200 ± 1200	1.28	–	9400 ± 700	1.39	14400 ± 2300	0.91	8800 ± 900	1.49	–	–
C=C(C)C1CC[C@]2(C(=O)NCCN3CCCCC3)CC[C@]3(C)C(CCC4[C@@]5(C)CC[C@H](O)C(C)(C)C5CC[C@]43C)C12 (stereo partly drawn) [Compound 27, (3β)-N-(2-Piperidin-1-ylethyl)-3-hydroxy-lup-20(29)-en-28-amide]	400 ± 10	400 ± 10	1.00	–	500 ± 100	0.80	400 ± 30	1.00	400 ± 100	1.00	800 ± 90	0.50
C[C@H]1[C@H](C)CC[C@]2(C(=O)O)CC[C@]3(C)C(=CC[C@@H]4[C@@]5(C)CC[C@H](O)C(C)(C)[C@@H]5CC[C@]43C)[C@H]12 [UA, ursolic acid]	18700 ± 1600	12700 ± 100	1.47	–	14700 ± 100	1.27	10600 ± 700	1.76	11700 ± 600	1.59	13500 ± 1500	1.39
C=C(C)C1CC[C@]2(C(=O)NCCN)CC[C@]3(C)C(CCC4[C@@]5(C)CC[C@H](O)C(C)(C)C5CC[C@]43C)C12 (stereo partly drawn) [Compound 24, (3β)-N-(2-Aminoethyl)-3-hydroxy-lup-20(29)-en-28-amide]	400 ± 20	400 ± 20	1.00	–	400 ± 10	1.00	400 ± 20	1.00	400 ± 30	1.00	400 ± 70	1.00
